Where two headings read alike, the source gives them in different places.
Assays:
[1] = test system: araC 8C subline of CCRF-CEM; test: [3H]MTX uptake in es-deficient araC 8C subline; type: cell-based, human; settings: 30 min time course ±Z
Protocol: Z potentiation was evaluated: (1) in a subline of CCRF-CEM (araC 8C) deficient in the es (or ENT1) facilitated diffusion nucleoside transport system (this is the only nucleoside transporter present in CCRF-CEM cells); and (2) in the presence of specific inhibitors of the es nucleoside transporter. […] Note that potentiation by Z is large in these studies because they were performed in HBSS to avoid binding of inhibitors by serum proteins and Z potentiation is higher in HBSS than in RPMI1640. […] Concentration-dependence studies are proposed to quantitate the potency of each inhibitor (IC50).

[2] = human, in vivo; cited from earlier work
CCRF-CEM cells [3] = test: cells; type: cell-based, human; settings: read-out: EC50, growth inhibition
Protocol: Inhibition of growth of human cell lines in vitro. Inhibition of growth of CCRF-CEM in continuous and intermittent drug exposures was measured. EC50 values were determined from plots of percent control growth versus the logarithm of drug concentration.
[…]; n=2). […]; n=2). Values presented are average±S.D. for n>2 and average±range for n=2. […] […]; EC50 data may therefore underestimate the biological potency.

[4] = test system: K562 human chronic myelogenous leukemia cell line; test: [3H]MTX influx in K562 cells; type: cell-based; settings: 0.5 mM Z; data not shown
[5] = test system: R2 clones transfected with human RFC expression plasmid; test: [3H]MTX transport in RFC-transfected R2 clones; type: cell-based
Protocol: To further confirm the involvement of RFC, we transfected the RFC-negative R2 subline of CCRF-CEM with a human RFC expression plasmid. Stably expressing clones were selected in 2 nM leucovorin (LV)-containing RPMI 1640 medium (R2 cannot replicate in this medium, while parental RFC-expressing CCRF-CEM can replicate). […] This supports RFC as mediating the transport potentiated by Z.

CCRF-CEM cells [6] = test: [3H]leucovorin uptake in CCRF-CEM cells; type: cell-based, human; settings: pre-incubation with Z alone, 1 μM [3H]LV
Protocol: Quantitation of folate and antifolate uptake. The method is essentially as follows. Briefly, logarithmically growing (3-5×10^5/ml) CCRF-CEM cells were harvested at room temperature by centrifugation at 1000×g for 5 min. After washing with the appropriate medium, cells were suspended at ≈2×10^7 cells/ml for use in transport studies. […] Anion-free MHS contains 250 mM sucrose and 20 mM HEPES, titrated to pH 7.4 with MgO. […] Uptake was measured as a function of time for 30 min (for rate and extent measurements) or over 5 min (studies requiring initial velocities). […] Uptake was terminated by diluting 100 μL samples into 1 ml of iced 0.9% NaCl. […] The supernatant was aspirated. The cell pellet was washed once with 1 ml iced 0.9% NaCl and centrifuged as above. The washed pellet was solubilized in 1 ml of 0.3% Triton X-100 by incubation for 60 min at 37° C. The solubilized pellet was transferred to a scintillation vial, 10 ml of Liquiscint (National Diagnostics, Atlanta, Ga.) was added and radioactivity was quantitated in a Beckman Model LS6500 liquid scintillation counter. Separate samples at the longest incubation time used in a particular experiment were harvested for HPLC analysis of intracellular contents as above, except that after the second wash the pellets were extracted with 1 ml boiling 0.1 M Na-phosphate, pH 5.5. The extract was clarified by centrifugation and the supernatant was filtered through an MPS-1 filter unit (Amicon) prior to HPLC analysis.

CCRF-CEM cells [7] = test: Protein-bound intracellular [3H]MTX; type: cell-based, human
Protocol: The cell pellet was frozen immediately at less than or equal to −80 degrees C. To process, 1 ml iced lysis buffer was added to the pellet immediately after removal from the freezer and the pellet was dispersed with a pasteur pipette. Freshly made lysis buffer contained (final concentrations): 50 mM citric-citrate, pH 6.0, 50 mM 2-mercaptoethanol, 50 μM NADPH (in 25 mM Tris, pH7.5), and 2 mg/ml bovine serum albumin. The sample was freeze-thawed once in dry ice-methanol, centrifuged at 1860×g for 10 min to remove debris and then further clarified by centrifugation through an Amicon MPS-1 filter unit. A 5 ml centrifugal column was prepared at 4 degrees C. in a 5 ml plastic syringe plugged with a porous plastic frit overlaid with a GF/C glass fiber filter cut with a #8 cork borer, then packed with Sephadex G-25 (Medium) in 50 mM citric-citrate, pH 6.0 to the 5 ml line, and centrifuged 5 min at 1000×g (0°) to expel liquid. The clarified supernatant (0.5 ml) was applied to the top of the column, the column was re-centrifuged at 1000×g (5 min) and the pass-through was collected in a 7 ml scintillation vial. After addition of scintillation fluid (5.5 ml), the sample was quantitated by liquid scintillation counting.

CCRF-CEM cells [8] = test: Subcellular localization of [3H]MTX; type: cell-based, human
Protocol: Subcellular fractionation. […] Cells were diluted 9-fold in iced 0.9% NaCl, centrifuged at 1000×g for 5 min and washed once with 40 ml iced saline. All subsequent steps were performed at 4°. Cells were homogenized as previously described, except that hypotonic buffer at 20-fold the packed cell volume was used, and the homogenate was centrifuged for 6 min at 1000×g to yield a nuclear pellet (also containing unlysed cells and large debris) and a post-nuclear supernatant (PNS). Based on controls using nonradiolabeled cells, >91% of the cells would be lysed during homogenization. The PNS was centrifuged at 17,000×g to yield a combined mitochondria-lysosome pellet. The resulting supernatant was centrifuged at 100,000×g for 60 min to yield the 100,000×g supernatant (cytosol). The 100,000×g pellet (microsomes) and the combined mitochondria-lysosome pellet were each washed in isotonic buffer and centrifuged at their respective g-forces. All pellets were solubilized in 0.3% Triton X-100 by incubating at 37° for 1 hr; 1 ml was transferred to a scintillation vial for quantitation. Triton X-100 was added to the cytosol to a final concentration of 0.3% and a 1 ml aliquot was quantitated. Radioactivity in each fraction was corrected for a blank containing 0.3% Triton X-100.

EC50 (CCRF-CEM cells [3]; 0-24/120 hr exposure) [µM]	EC50 (CCRF-CEM cells [3]; 120 hr exposure) [µM]	SMILES	Potentiation of [3H]MTX uptake in araC 8C subline [1]	Toxicity in clinical trials [2]	Potentiation of [3H]MTX influx [4]	Potentiation of [3H]MTX transport in RFC-transfected clones compared with CCRF-CEM [5]	Potentiation of [3H]LV uptake (CCRF-CEM cells [6])	Protein-bound MTX level at 30 min (CCRF-CEM cells [7]; absence of Z) [pmol/10^7 cells]	Protein-bound MTX level at 30 min (CCRF-CEM cells [7]; presence of 0.5 mM Z) [pmol/10^7 cells]	Cytosol material that is MTX or metabolites (HPLC) (CCRF-CEM cells [8]) [%]	Radioactivity that is cytosolic, post-nuclear supernatant only (CCRF-CEM cells [8]; nuclear pellet excluded) [%]	Total recovered radioactivity in the cytosolic fraction (CCRF-CEM cells [8]; ±Z)
410 ± 50	130 ± 20	NC(=O)c1ncn([C@@H]2O[C@H](CO)[C@@H](O)[C@H]2O)c1N [Z, 5-amino-4-imidazolecarboxamide riboside]	no potentiation	nontoxic	potentiates	potentiated by Z to a similar extent	does not potentiate	–	–	–	–	–
–	–	CN(Cc1cnc2nc(N)nc(N)c2n1)c1ccc(C(=O)N[C@@H](CCC(=O)O)C(=O)O)cc1 [MTX, 4-amino-10-methylpteroylglutamic acid]	–	–	–	–	–	6.4±0.1	5.4±0.4	> 90	> 98	More than 91%
